Reference: patent US9738659B2, “Compositions of protein receptor tyrosine kinase inhibitors” (Purdue Pharma L.P., priority 2008, dated 2017)

What was measured:
CCI rats = assay: Chronic constriction injury (CCI) model of neuropathic pain in rats; assay type: in vivo, rat; conditions: CCI rats after single oral dose
Text: Chronic Constriction Injury (CCI) Model of Neuropathic Pain in Rats.
The CCI model is one of the most commonly used mono-neuropathic pain model firstly described in details by Bennett and Xie (Bennett G J, Xie Y K. Pain. 1988; 33(1):87-107). It mimics important clinical chronic pain symptoms such as mechanical allodynia and thermal hyperalgesia. Chronic constriction injury of the sciatic nerve was produced by tying four loose ligatures around the left sciatic nerve according to the method of Bennett and Xie. […] Calibrated von Frey filaments were used to determine the lowest mechanical (tactile) threshold required to evoke a brisk paw withdrawal reflex in the rat hindpaws. Rats were allowed to acclimatize in wire mesh cages for 15-20 min prior to von Frey testing. Assessment of paw withdrawal thresholds (PWTs) using von Frey filaments was undertaken prior to CCI-surgery (pre-surgery baseline on day 0). Before the drug dosing on day 14, the pre-dose baseline was recorded for each rat. […] Drug-naïve CCI-rats (n=4-6 per group) were used. The oral vehicle was 0.5% CMC-Na/0.1% Tween 80 in distilled water. The positive control gabapentin was dissolved in the vehicle and orally given at 100 mg/kg (by oral gavage). Test compound was suspended in the vehicle and orally given at 50 mg/kg and 100 mg/kg. […]

TrkA (h) = target: T1, TrkA (h) (Homo sapiens, UniProt P04629); assay: Radiometric based mixed micelle kinase assay; assay type: biochemical; conditions: read-out: IC50 antagonizing the TrkA kinase activity
T1 construct: Recombinant Human Cytoplasmic Domain (amino acids 441-796); His tag; host or cells: insect cells
Description: Compound Inhibition in a Radiometric Based Mixed Micelle Assay:
In a final reaction volume of 25 μL, TrkA (h) (3 nM) is incubated with the kinase reaction buffer (20 mM HEPES (pH 7.5), 10 mM MgCl2, 1 mM EGTA, 0.02% Brij 35, 0.02 mg/ml BSA, 0.1 mM Na3VO4, 2 mM DTT, 1% DMSO), 0.2 mg/ml substrate PolyEY(4:1) and […], and [33P-ATP] (specific activity approx. 500 cpm/pmol, concentration as required). The reaction is initiated by the addition of the MgATP mix. After incubation for at least 40 minutes at room temperature, the reaction is stopped by the addition of 5 μL of a 3% phosphoric acid solution. 10 μL of the reaction is then spotted onto a P30 filtermat and washed three times for 5 minutes in 75 mM phosphoric acid and once in methanol prior to drying and scintillation counting. TrkA: Recombinant Human Cytoplasmic Domain (amino acids 441-796), Histidine-tagged, expressed in insect cells. Activated in vitro via auto-phosphorylation. Mw=42.8 kDa. Substrates for kinases: poly(EY) for TRKA; poly(EY)(4:1) with 2 mM MnCl2, average Mw=16 kDa Standard conditions (unless otherwise specified): 30 nM TRKA, 0.2 mg/ml poly(EY)+2 mM MnCl2, and 10 μM ([γ-^33P]) ATP. Using the similar assay condition with other kinases of recombinant human cytoplasmic domain, the activities of other kinases could be also measured.

T1 sequence (P04629 441-796): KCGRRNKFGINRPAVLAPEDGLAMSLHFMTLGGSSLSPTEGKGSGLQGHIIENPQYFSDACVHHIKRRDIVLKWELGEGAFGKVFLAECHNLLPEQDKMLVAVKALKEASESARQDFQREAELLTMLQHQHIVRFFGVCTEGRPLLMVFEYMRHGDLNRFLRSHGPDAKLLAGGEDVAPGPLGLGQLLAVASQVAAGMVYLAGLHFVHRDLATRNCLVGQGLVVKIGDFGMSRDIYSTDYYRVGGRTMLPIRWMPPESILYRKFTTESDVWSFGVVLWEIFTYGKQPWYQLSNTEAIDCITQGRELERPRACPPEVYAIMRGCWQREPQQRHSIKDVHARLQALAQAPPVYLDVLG

Row | Structure (SMILES) | Observed side effects (drowsiness, motor incoordination, other abnormality) (CCI rats) | IC50 (TrkA (h)) [nM]
1 | NCC1(CC(=O)O)CCCCC1 [gabapentin] | drowsiness or motor incoordination | –
2 | Cc1ccc(Cl)cc1N1CCN(CCCNC(=O)c2ccc3c(c2)NC(=O)C2CCCCN32)CC1 (centres unmarked) [Compound 201, N-{3-[4-(5-chloro-2-methylphenyl)piperazin-1-yl]propyl}-6-oxo-6,6a,7,8,9,10-hexahydro-5H-pyrido[1,2-a]quinoxaline-3-carboxamide] | – | 85
